Measurements as given in the supplement of paper PMC10307832.

Key:
Assay in all cases: relative viability (nuclei count vs DMSO), 5 days (fraction); higher = more cells survive
Bortezomib + Luminespib = compound: CC(C)C[C@H](NC(=O)[C@H](Cc1ccccc1)NC(=O)c1cnccn1)B(O)O [Bortezomib] + CCNC(=O)c1noc(-c2cc(C(C)C)c(O)cc2O)c1-c1ccc(CN2CCOCC2)cc1 [Luminespib] (partner 0.01 µM)
Procedure, shortened: (§1)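 Relative viability divides the nuclei count in treated wells by that in vehicle wells. Lung cancer cell lines were seeded in 1536-well plates, dosed by pin tool the next day, and fixed and stained after 5 days in one step with final 0.05% Triton X-100, 1% formaldehyde and 1 ug/ml Hoechst. Dosing was a single drug or a fixed anchor-drug dose plus five library-drug doses (not always all listed) in √10 steps, and values are medians of duplicate plates imaged at 4×.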

Bortezomib + Navitoclax = compound: CC(C)C[C@H](NC(=O)[C@H](Cc1ccccc1)NC(=O)c1cnccn1)B(O)O [Bortezomib] + CC1(C)CCC(c2ccc(Cl)cc2)=C(CN2CCN(c3ccc(C(=O)NS(=O)(=O)c4ccc(N[C@H](CCN5CCOCC5)CSc5ccccc5)c(S(=O)(=O)C(F)(F)F)c4)cc3)CC2)C1 [Navitoclax] (partner 0.5 µM)
Procedure, shortened: as §1

[1] = compound: CC1=CC(=NN1)NC2=CC(=NC(=N2)/C=C/C3=CC=CC=C3)N4CCN(CC4)C + Cc1nc(NC(=O)N2CCC[C@H]2C(N)=O)sc1-c1ccnc(C(C)(C)C(F)(F)F)c1 [Alpelisib] (partner 2 µM)
Procedure, shortened: as §1

Obatoclax + Pictilisib = compound: COC1=CC(c2cc3ccccc3[nH]2)=N/C1=C\c1[nH]c(C)cc1C [Obatoclax] + CS(=O)(=O)N1CCN(Cc2cc3nc(-c4cccc5[nH]ncc45)nc(N4CCOCC4)c3s2)CC1 [Pictilisib] (partner 1 µM)
Procedure, shortened: as §1

Cell Line | relative viability (Bortezomib + Luminespib; first compound 0.0002 µM) | relative viability (Bortezomib + Luminespib; first compound 0.000632 µM) | relative viability (Bortezomib + Luminespib; first compound 0.002 µM) | relative viability (Bortezomib + Luminespib; first compound 0.006325 µM) | relative viability (Bortezomib + Luminespib; first compound 0.02 µM) | relative viability (Bortezomib + Navitoclax; first compound 0.0002 µM) | relative viability (Bortezomib + Navitoclax; first compound 0.000632 µM) | relative viability (Bortezomib + Navitoclax; first compound 0.002 µM) | relative viability (Bortezomib + Navitoclax; first compound 0.006325 µM) | relative viability (Bortezomib + Navitoclax; first compound 0.02 µM) | relative viability ([1]; first compound 0.08 µM) | relative viability ([1]; first compound 0.253 µM) | relative viability ([1]; first compound 0.8 µM) | relative viability ([1]; first compound 2.53 µM) | relative viability ([1]; first compound 8 µM) | relative viability (Obatoclax + Pictilisib; first compound 0.01 µM) | relative viability (Obatoclax + Pictilisib; first compound 0.03162 µM) | relative viability (Obatoclax + Pictilisib; first compound 0.1 µM) | relative viability (Obatoclax + Pictilisib; first compound 0.3162 µM) | relative viability (Obatoclax + Pictilisib; first compound 1 µM)
RERF-LC-KJ | 1.16 | 1.21 | 0.986 | 0.291 | 0.273 | 1.01 | 1.19 | 0.593 | 0.247 | 0.244 | 0.788 | 0.978 | 0.828 | 0.573 | 0.314 | 0.543 | 0.587 | 0.538 | 0.513 | 0.334
NCI-H1755 | 0.494 | 0.418 | 0.417 | 0.21 | 0.181 | 0.975 | 0.979 | 0.917 | 0.269 | 0.165 | 0.9 | 1.07 | 0.887 | 0.456 | 0.155 | 0.475 | 0.383 | 0.386 | 0.357 | 0.269
PC-14 | 0.153 | 0.163 | 0.13 | 0.0991 | 0.109 | 1.02 | 0.941 | 0.992 | 0.0667 | 0.0697 | 0.915 | 0.85 | 0.322 | 0.749 | 0.124 | 0.712 | 0.622 | 0.681 | 0.716 | 0.324
NCI-H322M | 0.736 | – | 0.729 | 0.386 | 0.322 | 1.34 | – | 1.18 | 1.24 | 1.09 | 0.716 | 0.792 | 0.757 | 0.436 | 0.204 | 0.545 | 0.484 | 0.665 | 0.467 | 0.5
NCI-H1666 | 0.951 | 1.02 | 0.98 | 0.319 | 0.322 | 0.832 | 1.08 | 0.848 | 0.211 | 0.196 | 0.999 | 1.07 | 0.817 | 0.501 | 0.183 | 0.398 | 0.531 | 0.479 | 0.188 | 0.196
A-427 | 0.889 | 0.926 | 0.589 | 0.33 | 0.125 | 0.91 | 1.01 | 0.963 | 0.988 | 0.112 | 1.08 | 1.15 | 1.07 | 0.716 | 0.133 | 0.727 | 0.698 | 0.593 | 0.719 | 0.615
NCI-H1651 | 0.868 | 0.906 | 1.07 | 0.154 | 0.114 | 1.17 | 0.958 | 0.263 | 0.14 | 0.101 | 0.816 | 0.919 | 1.15 | 0.558 | 0.146 | 0.58 | 0.567 | 0.634 | 0.256 | 0.188
NCI-H520 | 0.223 | 0.234 | 0.237 | 0.211 | 0.217 | 1 | 0.959 | 0.347 | 0.145 | 0.157 | 0.891 | 0.937 | 0.892 | 0.498 | 0.166 | 0.3 | 0.336 | 0.318 | 0.268 | 0.245
201T | 1.03 | 1.01 | 1.09 | 0.745 | 0.215 | 1.21 | 1.19 | 1.21 | 1.22 | 1.23 | 1.04 | 1.08 | 1.01 | 0.931 | 0.793 | 0.679 | 0.648 | 0.741 | 0.678 | 0.687
NCI-H460 | 0.0335 | 0.0348 | 0.033 | 0.0295 | 0.0196 | 1.08 | 1.15 | 1.34 | 0.0699 | 0.0164 | 0.388 | 0.581 | 0.183 | 0.0086 | 0.0052 | 0.401 | 0.294 | 0.136 | 0.344 | 0.329
NCI-H596 | 0.942 | 0.73 | 0.609 | 0.244 | 0.2 | 0.921 | 0.817 | 0.925 | 0.123 | 0.131 | 0.5 | 0.577 | 0.565 | 0.367 | 0.121 | 0.416 | 0.357 | 0.365 | 0.359 | 0.296
HARA | 0.718 | 0.77 | 0.607 | 0.0345 | 0.0465 | 1.14 | 1.16 | 1.12 | 0.075 | 0.108 | 0.858 | 0.85 | 0.974 | 0.121 | 0.0791 | 0.449 | 0.445 | 0.426 | 0.379 | 0.352
NCI-H1793 | 0.184 | 0.151 | 0.171 | 0.204 | 0.127 | 0.418 | 0.463 | 0.599 | 0.409 | 0.149 | 0.679 | 0.758 | 0.654 | 0.398 | 0.124 | 0.288 | 0.306 | 0.388 | 0.297 | 0.296
NCI-H2126 | 0.864 | 0.904 | 0.821 | 0.543 | 0.213 | 0.857 | 0.844 | 0.827 | 0.848 | 0.327 | 0.776 | 0.802 | 0.76 | 0.674 | 0.377 | 0.524 | 0.464 | 0.554 | 0.481 | 0.482
HCC-827 | 0.533 | 0.588 | 0.415 | 0.152 | 0.122 | 1.05 | 1.03 | 0.768 | 0.979 | 0.0957 | 0.934 | 0.984 | 1.02 | 0.874 | 0.475 | 1.04 | 0.948 | 0.953 | 0.916 | 1.04
